Where two headings read alike, the source gives them in different places.
Key:
[1] = system: Erysiphae graminis; experiment: Fungicidal activity against Barley Powdery Mildew (BPM) disease; assay type: in vivo; conditions: for BPM (Fungicidal Activities, C.V.): Barley Powdery Mildew
[2] = system: Pyricularia oryzae Carvara KA301; assay type: in vivo; conditions: for RCV (Fungicidal Activities, C.V.): Rice Blast
[3] = system: Phytophthora infestans; assay type: in vivo; conditions: for TLB (Fungicidal Activities, C.V.): Tomato Late Blight
[4] = system: Botrytis cinerae; experiment: Fungicidal activity against Cucumber Gray Mold Rot (CGM) disease; assay type: in vivo; conditions: for CGM (Fungicidal Activities, C.V.): Cucumber Gray Mold Rot, concentration 50 ppm; for Fungicidal Activities CGM (C.V.): 50 ppm
[5] = system: Puccinia recondita; experiment: Fungicidal activity against Wheat Leaf Rust (WLR) disease; assay type: in vivo; conditions: for WLR (Fungicidal Activities, C.V.): Wheat Leaf Rust
[6] = system: Rhizoctonia solani AG-1; experiment: Fungicidal activity against Rice Sheath Blight (RSB) disease; conditions: for RSB (Fungicidal Activities, C.V.): Rice Sheath Blight

Row | Compound | BPM (Fungicidal Activities, C.V.) ([1]; concentration 2 ppm) | BPM (Fungicidal Activities, C.V.) ([1]; concentration 50 ppm) | RCV (Fungicidal Activities, C.V.) ([2]; concentration 2 ppm) | RCV (Fungicidal Activities, C.V.) ([2]; concentration 50 ppm) | TLB (Fungicidal Activities, C.V.) ([3]; concentration 50 ppm) | CGM (Fungicidal Activities, C.V.) [4] | WLR (Fungicidal Activities, C.V.) ([5]; concentration 2 ppm) | WLR (Fungicidal Activities, C.V.) ([5]; concentration 50 ppm) | RSB (Fungicidal Activities, C.V.) ([6]; concentration 50 ppm) | BPM (Fungicidal Activities, C.V.) ([1]; concentration 10 ppm) | WLR (Fungicidal Activities, C.V.) ([5]; concentration 10 ppm) | RSB (Fungicidal Activities, C.V.) ([6]; concentration 2 ppm) | other results
1 | CNC(=O)C(=NOC)c1ccccc1CON=Cc1cccc(OC(F)=Cc2ccc(C)c(C)c2)c1 [Compound 32] | 0% | 100% | 99% | 100% | 0% | 8% | 3% | 99% | 41% | – | – | – | –
2 | CO/C=C(/C(=O)OC)c1ccccc1CON=C(C)c1cccc(OC(F)=Cc2ccccc2)c1 [Compound 40, Methyl (2E)-3-Methoxy-2-{2′-[[[3″-(1′″-fluoro-2′″-phenyl-1′″-ethenyloxy)phenyl]methylimino]oxy]methylphenyl}propenoate] | 100% | 100% | 99% | 100% | 97% | 75% | 99% | 100% | 95% | 100% | 100% | 70% | RCV (Fungicidal Activities, C.V.) ([2]; concentration 10 ppm): 100%; TLB (Fungicidal Activities, C.V.) ([3]; concentration 2 ppm): 12%; TLB (Fungicidal Activities, C.V.) ([3]; concentration 10 ppm): 68%; RSB (Fungicidal Activities, C.V.) ([6]; concentration 10 ppm): 75%
3 | CON=C(C(=O)OC)c1ccccc1CON=C(C)c1cccc(OC(F)=Cc2ccc(F)cc2)c1 [Compound 74] | 100% | 100% | 100% | 100% | 56% | 72% | 99% | 100% | 100% | – | – | 25% | TLB (Fungicidal Activities, C.V.) ([3]; concentration 2 ppm): 12%
4 | COC=C(C(=O)OC)c1ccccc1CON=Cc1cccc(OC(F)=C(c2ccc(C)cc2)C(F)(F)F)c1 [Compound 105] | 98% | 100% | – | 0% | 0% | 0% | 86% | 100% | 20% | 99% | 98% | – | –
5 | COC=C(C(=O)OC)c1ccccc1CON=Cc1cccc(OC(F)=Cc2cccc(Cl)c2)c1 [Compound 13] | 99% | 100% | 41% | 93% | 46% | 36% | 99% | 100% | 70% | 100% | 100% | – | RCV (Fungicidal Activities, C.V.) ([2]; concentration 10 ppm): 86%
6 | COC=C(C(=O)OC)c1ccccc1CON=Cc1cccc(OC(F)=Cc2cc(C)cc(C)c2)c1 [Compound 5] | 98% | 100% | – | 41% | 28% | 17% | 96% | 100% | 55% | 100% | 100% | – | –
7 | CNC(=O)C(=NOC)c1ccccc1CON=C(C)c1cccc(OC(F)=C(c2ccc(C)cc2)C(F)(F)F)c1 [Compound 192] | – | – | – | – | – | – | – | – | – | – | – | – | Fungicidal Activities BPM (C.V.) ([1]; 2 ppm): 100%; Fungicidal Activities BPM (C.V.) ([1]; 50 ppm): 100%; Fungicidal Activities RCV (C.V.) ([2]; 2 ppm): 100%; Fungicidal Activities RCV (C.V.) ([2]; 50 ppm): 100%; Fungicidal Activities TLB (C.V.) ([3]; 2 ppm): 37%; Fungicidal Activities TLB (C.V.) ([3]; 50 ppm): 40%; Fungicidal Activities CGM (C.V.) [4]: 75%; Fungicidal Activities WLR (C.V.) ([5]; 2 ppm): 98%; Fungicidal Activities WLR (C.V.) ([5]; 50 ppm): 100%; Fungicidal Activities RSB (C.V.) ([6]; 2 ppm): 40%; Fungicidal Activities RSB (C.V.) ([6]; 50 ppm): 100%
8 | CCc1ccc(C=C(F)Oc2cccc(C=NOCc3ccccc3C(=NOC)C(=O)NC)c2)cc1 [Compound 33] | 0% | 100% | 97% | 96% | 0% | 0% | 10% | 96% | 17% | – | – | – | –
9 | CNC(=O)C(=NOC)c1ccccc1CON=C(C)c1cccc(OC(F)=C(c2cccc(C(F)(F)F)c2)C(F)(F)F)c1 [Compound 200] | – | – | – | – | – | – | – | – | – | – | – | – | Fungicidal Activities BPM (C.V.) ([1]; 2 ppm): 99%; Fungicidal Activities BPM (C.V.) ([1]; 50 ppm): 100%; Fungicidal Activities RCV (C.V.) ([2]; 2 ppm): 95%; Fungicidal Activities RCV (C.V.) ([2]; 50 ppm): 96%; Fungicidal Activities TLB (C.V.) ([3]; 2 ppm): 12%; Fungicidal Activities TLB (C.V.) ([3]; 50 ppm): 50%; Fungicidal Activities CGM (C.V.) [4]: 81%; Fungicidal Activities WLR (C.V.) ([5]; 2 ppm): 93%; Fungicidal Activities WLR (C.V.) ([5]; 50 ppm): 100%; Fungicidal Activities RSB (C.V.) ([6]; 2 ppm): 15%; Fungicidal Activities RSB (C.V.) ([6]; 50 ppm): 85%
10 | CON=C(C(=O)OC)c1ccccc1CON=C(C)c1cccc(OC(F)=Cc2ccc(Cl)cc2)c1 [Compound 76] | 100% | 100% | 100% | 100% | 0% | 62% | 100% | 100% | 100% | – | – | 35% | TLB (Fungicidal Activities, C.V.) ([3]; concentration 2 ppm): 0%
11 | COC=C(C(=O)OC)c1ccccc1CON=C(C)c1cccc(OC(F)=C(c2ccc(C)cc2)C(F)(F)F)c1 [Compound 152] | 95% | 100% | 86% | 100% | 0% | 44% | 86% | 100% | 90% | 100% | 98% | 45% | RCV (Fungicidal Activities, C.V.) ([2]; concentration 10 ppm): 97%; RSB (Fungicidal Activities, C.V.) ([6]; concentration 10 ppm): 60%
12 | COC=C(C(=O)OC)c1ccccc1CON=Cc1cccc(OC(F)=C(c2cccc(Cl)c2)C(F)(F)F)c1 [Compound 116] | 33% | 100% | – | 0% | 14% | 0% | 53% | 96% | 15% | 96% | 96% | – | –
13 | CON=C(C(=O)OC)c1ccccc1CON=C(C)c1cccc(OC(F)=C(c2ccc(C)c(C)c2)C(F)(F)F)c1 [Compound 176] | – | – | – | – | – | – | – | – | – | – | – | – | Fungicidal Activities BPM (C.V.) ([1]; 2 ppm): 80%; Fungicidal Activities BPM (C.V.) ([1]; 50 ppm): 100%; Fungicidal Activities RCV (C.V.) ([2]; 2 ppm): 83%; Fungicidal Activities RCV (C.V.) ([2]; 50 ppm): 86%; Fungicidal Activities TLB (C.V.) ([3]; 50 ppm): 70%; Fungicidal Activities CGM (C.V.) [4]: 12%; Fungicidal Activities WLR (C.V.) ([5]; 2 ppm): 60%; Fungicidal Activities WLR (C.V.) ([5]; 50 ppm): 100%; Fungicidal Activities RSB (C.V.) ([6]; 2 ppm): 20%; Fungicidal Activities RSB (C.V.) ([6]; 50 ppm): 60%

— patent publication US6552080B1, “Fungicidal compounds having a fluorovinyl-or fluoropropenyl-oxyphenyloxime moiety and process for the preparation thereof” (Korea Research Institute of Chemical Technology, priority 1999, dated 2003)
